Data published in article PMC7062782, “A progesterone biosensor derived from microbial screening” (Nature Communications, 2020).

T1: SRTF1 (Pimelobacter simplex, UniProt A0A0A1DUF2)
T1 construct: gene KR76_27130; assembled on quantum dots for FRET
T1 sequence (A0A0A1DUF2 1-189): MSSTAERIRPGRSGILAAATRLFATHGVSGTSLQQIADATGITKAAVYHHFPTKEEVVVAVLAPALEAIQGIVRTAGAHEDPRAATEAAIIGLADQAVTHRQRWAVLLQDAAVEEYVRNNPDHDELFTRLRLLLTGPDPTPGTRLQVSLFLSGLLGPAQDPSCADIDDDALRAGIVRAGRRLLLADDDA

T2: SRTF1 (Pimelobacter simplex ATCC 6946, UniProt A0A0A1DUF2 1-189)
T2 sequence: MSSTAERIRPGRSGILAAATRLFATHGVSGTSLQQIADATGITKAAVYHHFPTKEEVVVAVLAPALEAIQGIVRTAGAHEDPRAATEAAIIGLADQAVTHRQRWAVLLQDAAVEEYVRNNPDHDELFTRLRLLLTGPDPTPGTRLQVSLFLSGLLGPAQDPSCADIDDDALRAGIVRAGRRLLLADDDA

B1: BLI-SCRM (dsDNA)
DNA 1: AAATTGTCCCGGGCCTTTCTCCGCGCGTCTGGTAACCCTTAGGATTACTC
DNA 2: GAGTAATCCTAAGGGTTACCAGACGCGCGGAGAAAGGCCCGGGACAATTT

Assays:
[1] = molecular target: T1, SRTF1; experiment: QD-TF-FRET, ligand-induced release of Cy5-labelled operator DNA; type: biochemical; details: sensor 3: QD/TF/DNA ratio 1:1:18, operator with 2 mutated bases in one half of palindrome, HEPES, RT; allosteric
[2] = molecular target: T2, SRTF1; experiment: BLI; no steroid; BLI: 28 mM Tris-HCl pH 8.0, 5 mM MgCl (so in the source), 4.25% glycerol, 25 mM NaCl, 1.67 mg/mL BSA, 30 C; QD-FRET: 1x HEPES with binding buffer (5x: 25 mM MgCl2, 25% glycerol, 250 mg/L salmon sperm DNA, 0.1 M Tris-HCl), RT; details: protein: recombinant; tags: C-terminal 6xHis; chain copies: 2; label: 5' biotin on strand 1; blunt

| Molecule | IC50 [1] | binding result [2] |
| --- | --- | --- |
| C[C@]12CCC(=O)C=C1CC[C@@H]1[C@@H]2[C@@H](O)C[C@]2(C=O)[C@@H](C(=O)CO)CC[C@@H]12 [ALD, aldosterone] | 0.312 ± 0.042 µM | – |
| B1 | – | no binding |
